Source: PubChem BioAssay (NCI)
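Dose response: 5 concentrations. Exposure: 48 h. Format: 96-well plates. Endpoint: linear interpolation; highest concentration if not reached. Abbreviation: GI50, concentration required for 50% inhibition of growth. At the TGI there is no net growth.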

Tests used:
Test in all cases: DTP human tumour cell line panel, 48 h
[1] = tested on: KM12 colon
[2] = tested on: MALME-3M melanoma
[3] = tested on: T-47D breast
[4] = tested on: HT29 colon
[5] = tested on: SNB-19 CNS
[6] = tested on: MDA-MB-435
[7] = tested on: TK-10 renal
[8] = tested on: NCI/ADR-RES ovarian
[9] = tested on: SF-268 CNS
[10] = tested on: LOX IMVI melanoma

SMILES | GI50 [1] | TGI [1] | GI50 [2] | TGI [2] | GI50 [3] | TGI [3] | GI50 [4] | TGI [4] | GI50 [5] | TGI [5] | GI50 [6] | TGI [6] | GI50 [7] | TGI [7] | GI50 [8] | TGI [8] | GI50 [9] | TGI [9] | TGI [10] | GI50 [10]
CCCCCCn1c(-c2ccc(C(=O)O/N=C(\N)c3ccc4ccccc4c3)cc2)nc(-c2ccccc2)c1-c1ccccc1 | > 100 µM | > 100 µM | > 49.9 µM | > 100 µM | 4.99 µM | > 100 µM | > 100 µM | > 100 µM | 22.3 µM | > 100 µM | 7.42 µM | > 100 µM | 16 µM | > 88.5 µM | 3.02 µM | > 100 µM | 6.71 µM | > 100 µM |  | 
CCOC(=O)Cc1csc(Nc2ccc(OCC)cc2)n1 |  | > 100 µM |  | > 100 µM |  |  |  | > 100 µM |  | > 100 µM |  |  |  | > 100 µM |  |  |  | > 100 µM |  | 
O=C(NCc1cccnc1)C1COc2cc(-c3cc(=O)c4ccccc4o3)ccc2O1 (configuration not stated) |  | > 100 µM |  | > 100 µM |  |  |  | > 100 µM |  | > 67.2 µM |  |  |  | > 83.4 µM |  |  |  | > 55.2 µM | > 63.1 µM | 
CCCCC(C(=O)CCC(=O)Nc1ccc(Cl)c(Cl)c1)C(=O)C(C)C (configuration not stated) |  | > 100 µM |  | > 100 µM |  |  |  | > 100 µM |  | > 100 µM |  |  |  | > 100 µM |  |  |  | > 100 µM | > 100 µM | 
CCCCCCCCCCCC(=O)N1CCN(C(C)=O)CC1 | 25 µM | 56.5 µM | 26.9 µM | 52.9 µM |  |  |  |  | 19.3 µM | 40 µM | 20.4 µM | 40.9 µM | 31 µM | 72.1 µM | 25.9 µM | 72.6 µM | 39.8 µM | > 100 µM | > 100 µM | 34.4 µM
CC[C@@]1(O)C(=O)OCc2c1cc1n(c2=O)Cc2cc3cccc([N+](=O)[O-])c3nc2-1 | 4.82 µM | 35.6 µM | 4.35 µM | > 100 µM |  |  | 2.18 µM | > 100 µM | 0.877 µM | 31.4 µM |  |  | 21 µM | > 100 µM |  |  | 0.794 µM | > 100 µM | 6.14 µM | 0.429 µM
CCN1C(=O)N(CC)C2C1NN=c1s/c(=C\c3ccco3)c(=O)n12 (configuration not stated) | 0.394 µM | > 100 µM | 2.15 µM | > 100 µM |  |  | 0.361 µM | > 100 µM | 0.741 µM | > 100 µM | 0.138 µM | 0.58 µM | 19.7 µM | > 100 µM | 0.417 µM | > 100 µM | 0.791 µM | > 100 µM | > 100 µM | 0.653 µM
Cc1cc(C)n(-c2ccnc3cc(Cl)ccc23)n1 |  | > 100 µM |  | > 100 µM |  |  |  | > 100 µM |  | > 100 µM |  |  |  | > 100 µM |  |  |  | > 100 µM | > 100 µM | 
COc1cc2c(cc1Cc1cccc(Cl)c1F)c(=O)c(C(=O)O)cn2[C@@H](CO)C(C)C | 4.03 µM | 13.1 µM | 5.16 µM | 18.9 µM | 5.5 µM | 18.3 µM | 2.62 µM | 5.56 µM | 3.07 µM | 16 µM | 3.84 µM | 15.2 µM |  |  | 4.99 µM | 19.4 µM | 5.42 µM | 19.1 µM | 10.1 µM | 2.69 µM
COc1cc(O)c2c(c1)O[C@@H]1OCC[C@H]21 |  | > 100 µM |  | > 100 µM |  |  |  | > 100 µM |  | > 100 µM |  |  |  | > 100 µM |  |  |  |  | > 100 µM | 
COC(=O)C1=CO[C@@H](OC2OC(CO)C(O)C(O)C2O)[C@H]2[C@@H](C)[C@@H](O)[C@@H](O)[C@@H]12 (some centres not stated) |  | > 100 µM |  | > 100 µM |  | > 100 µM |  | > 100 µM |  |  |  | > 100 µM |  | > 100 µM |  | > 100 µM |  | > 100 µM | > 100 µM | 
CC(C)(C)[Si](C)(C)OC1[C@@H](O[Si](C)(C)C(C)(C)C)[C@@H](CNC(=O)NC(=O)CF)O[C@H]1n1cnc2c(NC(=O)Nc3ccccc3)ncnc21 (some centres not stated) | 9.36 µM | 38.3 µM | 30.8 µM | > 50 µM | 4.7 µM | > 50 µM | 7.35 µM | 25.9 µM |  |  | 14.6 µM | > 50 µM | 16.5 µM | 41.7 µM | 48.5 µM | > 50 µM | 12.6 µM | > 50 µM | 12.5 µM | 6.14 µM
COc1ccc(NC(=O)CC/C(CC(=O)c2ccco2)=N/NC(N)=S)cc1 |  | > 100 µM |  | > 100 µM |  |  |  | > 100 µM |  | > 100 µM |  |  |  | > 100 µM |  |  |  | > 100 µM | > 100 µM | 
COC(=O)c1ccccc1N1C(=O)Cc2ccccc2C1=O |  | > 100 µM |  | > 100 µM |  |  |  | > 100 µM |  | > 100 µM |  |  |  | > 100 µM |  |  |  | > 100 µM |  | 
O=c1[nH]c(=O)c2cc3cc(C4CC(O)C(CO)O4)ccc3cc2[nH]1 (configuration not stated) |  |  |  |  | > 100 µM | > 100 µM | > 100 µM | > 100 µM | > 100 µM | > 100 µM | > 100 µM | > 100 µM |  |  | > 100 µM | > 100 µM | > 100 µM | > 100 µM | > 100 µM | > 100 µM
CC1(Br)CC2OC3(Br)C=CC(C)(O)C2(CC1=O)C3(C)C (configuration not stated) |  | > 100 µM |  | > 100 µM |  |  |  | > 100 µM |  | > 100 µM |  |  |  | > 100 µM |  |  |  | > 100 µM | > 100 µM | 
COc1ccc(Sc2nc3cc(N)cc(N)c3nc2-c2ccccc2)cc1 | 28.4 µM | > 100 µM | 33.2 µM | 95 µM | > 100 µM | > 100 µM |  |  | > 100 µM | > 100 µM | > 100 µM | > 100 µM | 30.6 µM | > 100 µM | > 100 µM | > 100 µM | > 100 µM | > 100 µM | > 100 µM | 51 µM
CCCNCC(=O)O[C@]1(CC)C(=O)OCc2c1cc1n(c2=O)Cc2cc3ccccc3nc2-1 |  | 8.05 µM |  | 4.1 µM |  |  |  | > 100 µM |  | > 100 µM |  |  |  | > 100 µM |  |  |  | 2.46 µM | 0.662 µM | 
NC(N)=NC(N)=Nc1cnccn1 |  | > 100 µM |  | > 100 µM |  | > 100 µM |  | > 100 µM |  | > 100 µM |  | > 100 µM |  | > 100 µM |  | > 100 µM |  |  | > 100 µM | 
